Converted amounts (≈) assume the structure as drawn. Where a name gives a salt, the structure may show the parent alone. Read-outs that look alike come from different tables or passages of the source.
Assays:
pepsin = experiment: Stability to pepsin; assay type: in vitro ADME; conditions: pepsin 1 mg./ml. pH 2.2, 37° C., 24 hours; disc assay E. coli and S. aureus
Experimental: (§1) Antiobiotic 67-694 has been tested for stability against trypsin, chymotrypsin, pepsin, and α-amylase. Solutions of the enzymes were prepared at 1 mg./ml. in McIlvaines buffers at the optimal pH for the enzyme (i.e. trypsin and chymotrypsin pH 8; pepsin, pH 2.2; and α-amylase pH 4). Two hundred (200) mcg. of antibiotic was dissolved in 0.5 ml. of water, mixed with 0.5 ml. of enzyme solution and incubated at 37° C. for 24 hours. The solutions were disc assayed against Escherichia coli and Staphylococcus aureus after 0, 1, 2.5 and 24 hours incubation.

trypsin = experiment: Stability to trypsin; assay type: in vitro ADME; conditions: trypsin 1 mg./ml. pH 8, 37° C., 24 hours; disc assay E. coli and S. aureus
Experimental: as §1

[1] = in 66% dimethylformamide; data from U.S. Pat. No. 3,767,793; cited from earlier work
Proteus sp. = experiment: In vitro activity, tube dilution (MIC), Proteus sp.; assay type: cell-based; conditions: 3 strains; yeast beef broth pH 7.4, 18 h, 37° C.; read-out: MIC (Minimal Inhibitory Concentration), range
Experimental: (§2) The in vitro activity of Antibiotic 67-694 is ascertained by conventional tube dilution procedures using yeast beef broth medium at pH 7.4. The tubes are incubated for 18 hours at 37° C. prior to being observed.

[2] = system: Staphylococcus aureus gray; experiment: Protective activity in mice, Staphylococcus aureus gray infection; assay type: in vivo, male CF-1 (Carworth Farms) mice; conditions: two doses, survival 48 hours after infection, read-out: PD50
Experimental: (§3) The protective activity and the acute toxicity of Antibiotic 67-694 is tested in male CF-1 (Carworth Farms) mice weighing approximately 20 gms. each. For protection, the antibiotic is given as a suspension or a solution in an aqueous vehicle containing 0.5% carboxy methyl cellulose (CMC) in two doses; one shortly before and one 4 hours after intraperitoneal infection with the bacteria. Infected and non-treated mice (controls) generally die within 18 hours. Survival rate in the treated group is determined 48 hours after infection.
(§4) The acute toxicity of Antibiotic 67-694 is measured in the standard manner by administering the antibiotic by a variety of routes and determining the LD50 by standard procedures. The results of in vivo tests using a representative gram-positive and a representative gram negative organism are set forth in Tables X and Xi below: […]

Acute toxicity in mice = experiment: Acute toxicity in mice; set-up: species or system male CF-1 (Carworth Farms) mice; conditions: mouse, in vivo
Experimental: as §3, §4

Aerobacter aerogenes = experiment: In vitro activity, tube dilution (MIC), Aerobacter aerogenes; assay type: cell-based; conditions: 3 strains; yeast beef broth pH 7.4, 18 h, 37° C.; read-out: MIC (Minimal Inhibitory Concentration), range
Experimental: as §2

Solubility = assay type: physicochemical; conditions: U.S. Pharmacopea, 17th revision
Description: ^a) According to U.S. Pharmacopea, 17th revision (1965) pg. 8

Streptococcus pyogenes = experiment: In vitro activity, tube dilution (MIC), Streptococcus pyogenes; assay type: cell-based; conditions: 7 strains; yeast beef broth pH 7.4, 18 h, 37° C.; read-out: MIC (Minimal Inhibitory Concentration), range
Experimental: as §2

Pseudomonas aeruginosa = experiment: In vitro activity, tube dilution (MIC), Pseudomonas aeruginosa; assay type: cell-based; conditions: 4 strains; yeast beef broth pH 7.4, 18 h, 37° C.; read-out: MIC (Minimal Inhibitory Concentration), range
Experimental: as §2

Enterococcus sp. = experiment: In vitro activity, tube dilution (MIC), Enterococcus sp.; assay type: cell-based; conditions: 2 strains; yeast beef broth pH 7.4, 18 h, 37° C.; read-out: MIC (Minimal Inhibitory Concentration), range
Experimental: as §2

Streptococcus pyogenes C = experiment: Protective activity in mice, Streptococcus pyogenes C infection; assay type: in vivo, male CF-1 (Carworth Farms) mice; conditions: two doses, survival 48 hours after infection, read-out: PD50
Experimental: as §3, §4

gram-positive bacteria = experiment: Antibacterial activity, general statements; assay type: cell-based
Experimental: as §2

[3] = system: Salmonella schottmuelleri; experiment: In vitro activity, tube dilution (MIC), Salmonella schottmuelleri; assay type: cell-based; conditions: 3 strains; yeast beef broth pH 7.4, 18 h, 37° C.; read-out: MIC (Minimal Inhibitory Concentration), range
Experimental: as §2

[4] = U.S. Pat. No. 3,767,793, cited from earlier work
Escherichia coli = experiment: In vitro activity, tube dilution (MIC), Escherichia coli; assay type: cell-based; conditions: 3 strains; yeast beef broth pH 7.4, 18 h, 37° C.; read-out: MIC (Minimal Inhibitory Concentration), range
Experimental: as §2

chymotrypsin = experiment: Stability to chymotrypsin; assay type: in vitro ADME; conditions: chymotrypsin 1 mg./ml. pH 8, 37° C., 24 hours; disc assay E. coli and S. aureus
Experimental: as §1

α-amylase = experiment: Stability to α-amylase; assay type: in vitro ADME; conditions: α-amylase 1 mg./ml. pH 4, 37° C., 24 hours; disc assay E. coli and S. aureus
Experimental: as §1

Klebsiella pneumoniae = experiment: In vitro activity, tube dilution (MIC), Klebsiella pneumoniae; assay type: cell-based; conditions: 4 strains; yeast beef broth pH 7.4, 18 h, 37° C.; read-out: MIC (Minimal Inhibitory Concentration), range
Experimental: as §2

Staphylococcus aureus = experiment: In vitro activity, tube dilution (MIC), Staphylococcus aureus; assay type: cell-based; conditions: 6 strains; yeast beef broth pH 7.4, 18 h, 37° C.; read-out: MIC (Minimal Inhibitory Concentration), range
Experimental: as §2

Diplococcus Pneumoniae = experiment: In vitro activity, tube dilution (MIC), Diplococcus Pneumoniae; assay type: cell-based; conditions: 3 strains; yeast beef broth pH 7.4, 18 h, 37° C.; read-out: MIC (Minimal Inhibitory Concentration), range
Experimental: as §2

pKa = assay type: physicochemical
[5] = system: Bacillus subtilis ATCC 6633; experiment: Cylinder cup assay (bioassay potency); assay type: cell-based; conditions: for potency (bioassay): reference standard assigned 1000 mcg/mg
Experimental: The assay technique employed is a cylinder cup assay using Bacillus subtilis ATCC 6633 as the test organism.
The physical conditions of the assay consist of a base layer of 21 ml. and a seed layer of 4 ml. of Antibiotic Medium No. 5. A standard curve is plotted using the following concentrations of antibiotic ([…]) in 0.1 M phosphate buffer (pH 8.0): 0.64, 0.8, 1.0, 1.25, and 1.56. […] The test procedure and the test medium is substantially that described for erythromycin in Assay Methods of Antibiotics, D. C. Grove and W. A. Randall, Medical Encyclopedia Inc., New York, New York (1955) pp. 96-103.

CCC1OC(=O)CC(O)C(C)C(OC2OC(C)CC(N(C)C)C2O)C(CC=O)CC(C)C(=O)C=CC2(C)OC2C1C (centres unmarked) [Antibiotic 67-694]
Stability to enzymes: loss in activity (pepsin): no substantial loss in activity | Stability to enzymes: loss in activity (trypsin): no substantial loss in activity | pKa [1]: 8.4 | MIC (Proteus sp.): 0.3 µg/mL (≈ 0.516 µM) | ED50 ([2]; oral): 200 mg/kg | ED50 ([2]; sc, Subcutaneous): 50 mg/kg | LD50 (Acute toxicity in mice; ip, Intraperitoneal): 350 mg/kg | LD50 (Acute toxicity in mice; sc, Subcutaneous): 625 mg/kg | LD50 (Acute toxicity in mice; Intravenous): 155 mg/kg | MIC (Aerobacter aerogenes): 0.75 to 7.5 µg/mL (≈ 1.29 to 12.9 µM) | Solubility (Solubility; Acetone): Very soluble | Solubility (Solubility; Benzene): Very soluble | Solubility (Solubility; Chloroform): Very soluble | Solubility (Solubility; Ether): Sparingly soluble | Solubility (Solubility; Methanol): Very soluble | Solubility (Solubility; Water): Slightly soluble | MIC (Streptococcus pyogenes): 0.75 to 3 µg/mL (≈ 1.29 to 5.16 µM) | MIC (Pseudomonas aeruginosa): 0.75 to 3 µg/mL (≈ 1.29 to 5.16 µM) | MIC (Enterococcus sp.): 0.03 µg/mL (≈ 0.0516 µM) | ED50 (Streptococcus pyogenes C; Oral): 200 mg/kg | ED50 (Streptococcus pyogenes C; sc, Subcutaneous): 50 mg/kg | antibacterial activity / spectrum (in words) (gram-positive bacteria): broad antibacterial spectrum in vitro with a greater effect upon gram-positive bacteria | MIC [3]: 0.3 to 3 µg/mL (≈ 0.516 to 5.16 µM) | Solubilities ([4]; benzene, chloroform, ethyl acetate, dimethylformamide, ethanol or an aqueous acid solution): Soluble | Solubilities ([4]; petroleum ether, n-hexane or a neutral water): Insoluble | MIC (Escherichia coli): 3 µg/mL (≈ 5.16 µM) | Stability to enzymes: loss in activity (chymotrypsin): no substantial loss in activity | Stability to enzymes: loss in activity (α-amylase): no substantial loss in activity | MIC (Klebsiella pneumoniae): 0.3 to 3 µg/mL (≈ 0.516 to 5.16 µM) | MIC (Staphylococcus aureus): 0.03 to 3 µg/mL (≈ 0.0516 to 5.16 µM) | MIC (Diplococcus Pneumoniae): 0.03 to 0.08 µg/mL (≈ 0.0516 to 0.138 µM) | pKa (pKa): 8.7 | potency (assaying units per mg) ([5]; purified by silicic acid column, Example 4): about 1,000 units per mg

CCC(=O)OC1C(OC2C(CC=O)CC(C)C(=O)C=CC3(C)OC3C(C)C(CC)OC(=O)CC(O)C2C)OC(C)CC1N(C)C (centres unmarked) [Antibiotic 67-694 2'-Propionate Phosphate Salt]
potency (bioassay) ([5]; Phosphate Salt): 915 µg/mg

CCCCCCCCCCCCCCCCCC(=O)OC1C(OC2C(CC=O)CC(C)C(=O)C=CC3(C)OC3C(C)C(CC)OC(=O)CC(O)C2C)OC(C)CC1N(C)C (centres unmarked) [Antibiotic 67-694 2'-stearate, Antibiotic 67-694 2'-Stearate]
potency (bioassay) [5]: 585 µg/mg

Source: US4161523A, “Rosamicin esters, acid addition salts and methods for production thereof” (priority 1974, dated 1979)
